Reference: patent US20230002359A1, “PESTICIDALLY ACTIVE FUSED BICYCLIC HETEROAROMATIC COMPOUNDS” (priority 2019, published 2023)

Columns and labels:
Type in all cases: in vivo
[1] = system: Myzus persicae (Green Peach Aphid); assay: Example B6: Myzus persicae (green peach aphid) intrinsic activity, sucrose solution; conditions: 120 h, test rate of 12 ppm, 5 days after infestation, intrinsic activity, read-out: mortality
Experimental: Test compounds prepared from 10′000 ppm DMSO stock solutions were applied by pipette into 24-well microtiter plates and mixed with sucrose solution. The plates were closed with a stretched Parafilm. A plastic stencil with 24 holes was placed onto the plate and infested pea seedlings were placed directly on the Parafilm. The infested plate was closed with a gel blotting paper and another plastic stencil and then turned upside down. The samples were assessed for mortality 5 days after infestation.

[2] = system: Diabrotica Balteata (Corn Root Worm); assay: Example B1: Diabrotica balteata (corn root worm), maize sprouts sprayed, L2 larvae; conditions: 96 h, application rate of 200 ppm, 4 days after infestation, L2 larvae, read-out: control in at least one of the two categories (mortality or growth inhibition)
Procedure, shortened: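 Larvae at L2 stage, 6 to 10 per well, feed on dried, spray-treated maize sprouts set on agar. Evaluation after 4 days compares mortality and growth inhibition with untreated samples.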

[3] = system: Chilo suppressalis (Striped Rice Stemborer); assay: Example B3: Chilo suppressalis (striped rice stemborer), artificial diet, L2 larvae; conditions: 144 h, application rate of 200 ppm, 6 days after infestation, L2 larvae, read-out: control in at least one of the three categories (mortality, anti-feedant effect, or growth inhibition)
Procedure, shortened: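 Artificial diet in wells was treated with aqueous test solutions diluted from 10'000 ppm DMSO stocks, dried, then infested with 6-8 L2 larvae per well. Mortality, anti-feeding effect and growth inhibition were scored against untreated samples 6 days after infestation; control means any category exceeds the untreated sample.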

[4] = system: Plutella xylostella (Diamond Back Moth); assay: Example B4: Plutella xylostella (diamond back moth), artificial diet, eggs, 24-well; conditions: 192 h, application rate of 200 ppm, 8 days after infestation, eggs, read-out: control in at least one of the two categories (mortality or growth inhibition)
Experimental: 24-well microtiter plates with artificial diet were treated with aqueous test solutions prepared from 10′000 ppm DMSO stock solutions by pipetting. After drying, Plutella eggs were pipetted through a plastic stencil onto a gel blotting paper and the plate was closed with it. The samples were assessed for mortality and growth inhibition in comparison to untreated samples 8 days after infestation.

[5] = system: Euschistus heros (Neotropical Brown Stink Bug); assay: Example B2: Euschistus heros (neotropical brown stink bug), soybean leaves sprayed, N2 nymphs; conditions: 120 h, application rate of 200 ppm, 5 days after infestation, N2 nymphs, read-out: control in at least one of the two categories (mortality or growth inhibition)
Experimental: Soybean leaves on agar in 24-well microtiter plates were sprayed with aqueous test solutions prepared from 10′000 ppm DMSO stock solutions. After drying the leaves were infested with N2 nymphs. The samples were assessed for mortality and growth inhibition in comparison to untreated samples 5 days after infestation.

[6] = system: Spodoptera littoralis (Egyptian Cotton Leaf Worm); assay: Example B7: Spodoptera littoralis (Egyptian cotton leaf worm), cotton leaf discs sprayed, L1 larvae; conditions: foliar, 72 h, application rate of 200 ppm, 3 days after infestation, L1 larvae, read-out: control in at least one of the three categories (mortality, anti-feedant effect, or growth inhibition)
Procedure, shortened: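 Cotton leaf discs on agar were sprayed with aqueous test solutions made from 10′000 ppm DMSO stocks, dried, then infested with five L1 larvae. Mortality, anti-feeding effect and growth inhibition were scored against untreated discs 3 days after infestation; control means any category exceeds untreated.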

CC(c1ncnn1-c1ncccn1)N(C)c1ncnc2c(Br)cc(C(F)(F)F)cc12 (centres unmarked) [P.71, 8-bromo-N-methyl-N-[1-(2-pyrimidin-2-yl-1,2,4-triazol-3-yl)ethyl]-6-(trifluoromethyl)quinazolin-4-amine]
≥ 80%: mortality at 12 ppm [1] | percent control (mortality or growth inhibition) at 200 ppm [2] | percent control (mortality, anti-feedant effect or growth inhibition) at 200 ppm [3] | percent control (mortality or growth inhibition) at 200 ppm [4] | percent control (mortality or growth inhibition) at 200 ppm [5]

CC(c1ncnn1-c1ccc(C#N)cn1)N(C)c1ncnc2c(Br)cc(C(F)(F)F)cc12 (centres unmarked) [P.266, 6-[5-[1-[[8-bromo-6-(trifluoromethyl)quinazolin-4-yl]-methyl-amino]ethyl]-1,2,4-triazol-1-yl]pyridine-3-carbonitrile]
≥ 80%: percent control (mortality, anti-feedant effect or growth inhibition) at 200 ppm [6] | mortality at 12 ppm [1] | percent control (mortality or growth inhibition) at 200 ppm [2] | percent control (mortality, anti-feedant effect or growth inhibition) at 200 ppm [3] | percent control (mortality or growth inhibition) at 200 ppm [4] | percent control (mortality or growth inhibition) at 200 ppm [5]

C[C@H](Nc1ncnc2c(C(F)(F)F)cc(I)cc12)c1ncnn1-c1ncccn1 [P.87, 6-iodo-N-[(1S)-1-(2-pyrimidin-2-yl-1,2,4-triazol-3-yl)ethyl]-8-(trifluoromethyl)quinazolin-4-amine]
≥ 80%: mortality at 12 ppm [1] | percent control (mortality or growth inhibition) at 200 ppm [2] | percent control (mortality, anti-feedant effect or growth inhibition) at 200 ppm [3] | percent control (mortality or growth inhibition) at 200 ppm [4] | percent control (mortality or growth inhibition) at 200 ppm [5]

C#CCN(c1ncnc2c(C(F)(F)F)cc(C(F)(F)F)cc12)C(C)c1ncnn1-c1ccc(C#N)cn1 (centres unmarked) [P.261, 6-[5-[1-[[6,8-bis(trifluoromethyl)quina-zolin-4-yl]-prop-2-ynyl-amino]ethyl]-1,2,4-triazol-1-yl]pyridine-3-carbonitrile]
≥ 80%: percent control (mortality, anti-feedant effect or growth inhibition) at 200 ppm [6] | percent control (mortality or growth inhibition) at 200 ppm [2] | percent control (mortality, anti-feedant effect or growth inhibition) at 200 ppm [3] | percent control (mortality or growth inhibition) at 200 ppm [4] | percent control (mortality or growth inhibition) at 200 ppm [5]

C[C@@H](c1ncnn1-c1ncccn1)N(C)c1ncnc2c(C(F)(F)F)cc(C(=O)C3CC3)cc12 [P.82, cyclopropyl-[4-[methyl-[(1S)-1-(2-pyrimidin-2-yl-1,2,4-triazol-3-yl)ethyl]amino]-8-(trifluoromethyl)quinazolin-6-yl]methanone]
≥ 80%: mortality at 12 ppm [1] | percent control (mortality or growth inhibition) at 200 ppm [2] | percent control (mortality, anti-feedant effect or growth inhibition) at 200 ppm [3] | percent control (mortality or growth inhibition) at 200 ppm [4] | percent control (mortality or growth inhibition) at 200 ppm [5]

C[C@@H](c1ncnn1-c1ncccn1)N(C)c1ncnc2c(C(F)(F)F)cc(SC(F)(F)F)cc12 [P.84, N-methyl-N-[(1S)-1-(2-pyrimidin-2-yl-1,2,4-triazol-3-yl)ethyl]-8-(trifluoromethyl)-6-(trifluoromethylsulfanyl) quinazolin-4-amine]
≥ 80%: mortality at 12 ppm [1] | percent control (mortality or growth inhibition) at 200 ppm [2] | percent control (mortality, anti-feedant effect or growth inhibition) at 200 ppm [3] | percent control (mortality or growth inhibition) at 200 ppm [4] | percent control (mortality or growth inhibition) at 200 ppm [5]

CC(c1nccnc1-c1ncccn1)N(C)c1ncnc2c(C(F)(F)F)cc(C(F)(F)F)cc12 (centres unmarked) [P.107, N-methyl-N-[1-(3-pyrimidin-2-ylpyrazin-2-yl)ethyl]-6,8-bis(trifluoromethyl)quina-zolin-4-amine]
≥ 80%: percent control (mortality, anti-feedant effect or growth inhibition) at 200 ppm [6] | percent control (mortality or growth inhibition) at 200 ppm [2] | percent control (mortality, anti-feedant effect or growth inhibition) at 200 ppm [3] | percent control (mortality or growth inhibition) at 200 ppm [4] | percent control (mortality or growth inhibition) at 200 ppm [5]

COCN(c1ncnc2c(C(F)(F)F)cc(C(F)(F)F)cc12)C(C)c1ncnn1-c1ccc(C#N)cn1 (centres unmarked) [P.7, 6-[5-[1-[[6,8-bis(trifluroomethyl)quina-zolin-4-yl]-(methoxymethyl)amino]ethyl]-1,2,4-triazol-1-yl]pyridine-3-carbonitrile]
≥ 80%: percent control (mortality, anti-feedant effect or growth inhibition) at 200 ppm [6] | percent control (mortality or growth inhibition) at 200 ppm [2] | percent control (mortality, anti-feedant effect or growth inhibition) at 200 ppm [3] | percent control (mortality or growth inhibition) at 200 ppm [4] | percent control (mortality or growth inhibition) at 200 ppm [5]

CC(=O)N(c1ncnc2c(C(F)(F)F)cc(C(F)(F)F)cc12)C(C)c1ncnn1-c1ccc(C#N)cn1 (centres unmarked) [P.259, N-[6,8-bis(trifluoromethyl)quina-zolin-4-yl]-N-[1-[2-(5-cyano-2-pyridyl)-1,2,4-triazol-3-yl]ethyl]acetamide]
≥ 80%: percent control (mortality, anti-feedant effect or growth inhibition) at 200 ppm [6] | percent control (mortality or growth inhibition) at 200 ppm [2] | percent control (mortality, anti-feedant effect or growth inhibition) at 200 ppm [3] | percent control (mortality or growth inhibition) at 200 ppm [4] | percent control (mortality or growth inhibition) at 200 ppm [5]

CC(c1ncnn1-c1ccc(C#N)cn1)N(Cc1ccccc1)c1ncnc2c(C(F)(F)F)cc(C(F)(F)F)cc12 (centres unmarked) [P.8, 6-[5-[1-[benzyl-[6,8-bis(trifluoromethyl)quina-zolin-4-yl]amino]ethyl]-1,2,4-triazol-1-yl]pyridine-3-carbonitrile]
≥ 80%: percent control (mortality, anti-feedant effect or growth inhibition) at 200 ppm [6] | percent control (mortality or growth inhibition) at 200 ppm [2] | percent control (mortality, anti-feedant effect or growth inhibition) at 200 ppm [3] | percent control (mortality or growth inhibition) at 200 ppm [4] | percent control (mortality or growth inhibition) at 200 ppm [5]

C[C@@H](c1ncnn1-c1ccc(C#N)cn1)N(C)c1ncnc2c(C(F)(F)C3CC3)cc(C(F)(F)F)cc12 [P.213, 6-[5-[(1S)-1-[[8-[cyclopropyl(difluoro)meth-yl]-6-(trifluoromethyl)quinazolin-4-yl]-methyl-amino]ethyl]-1,2,4-triazol-1-yl]pyridine-3-carbonitrile]
≥ 80%: percent control (mortality, anti-feedant effect or growth inhibition) at 200 ppm [6] | percent control (mortality or growth inhibition) at 200 ppm [2] | percent control (mortality, anti-feedant effect or growth inhibition) at 200 ppm [3] | percent control (mortality or growth inhibition) at 200 ppm [4] | percent control (mortality or growth inhibition) at 200 ppm [5]

C[C@@H](c1ncnn1-c1ncccn1)N(C)c1ncnc2c(C(F)(F)F)cc(C(F)(F)C3CC3)cc12 [P.276, 6-[cyclopropyl(difluoro)meth-yl]-N-methyl-N-[(1S)-1-(2-pyrimidin-2-yl-1,2,4-triazol-3-yl)ethyl]-8-(trifluromethyl)quinazolin-4-amine]
≥ 80%: percent control (mortality, anti-feedant effect or growth inhibition) at 200 ppm [6] | percent control (mortality or growth inhibition) at 200 ppm [2] | percent control (mortality, anti-feedant effect or growth inhibition) at 200 ppm [3] | percent control (mortality or growth inhibition) at 200 ppm [4] | percent control (mortality or growth inhibition) at 200 ppm [5]

CC(c1ncnn1-c1ccc(C#N)cn1)N(C)c1ncnc2c(OC(F)(F)F)cc(Br)cc12 (centres unmarked) [P.216, 6-[5-[1-[[6-bromo-8-(trifluoromethoxy)quinazo-lin-4-yl]-methyl-amino]ethyl]-1,2,4-triazol-1-yl]pyridine-3-carbonitrile]
≥ 80%: percent control (mortality, anti-feedant effect or growth inhibition) at 200 ppm [6] | percent control (mortality or growth inhibition) at 200 ppm [2] | percent control (mortality, anti-feedant effect or growth inhibition) at 200 ppm [3] | percent control (mortality or growth inhibition) at 200 ppm [4] | percent control (mortality or growth inhibition) at 200 ppm [5]

CC(Nc1ncnc2c(Br)cc(C(F)(F)F)cc12)c1ncnn1-c1ncccn1 (centres unmarked) [P.47, 8-bromo-N-[1-(2-pyrimidin-2-yl-1,2,4-triazol-3-yl)ethyl]-6-(trifluoromethyl)quinazolin-4-amine]
≥ 80%: percent control (mortality, anti-feedant effect or growth inhibition) at 200 ppm [6] | percent control (mortality or growth inhibition) at 200 ppm [2] | percent control (mortality, anti-feedant effect or growth inhibition) at 200 ppm [3] | percent control (mortality or growth inhibition) at 200 ppm [4] | percent control (mortality or growth inhibition) at 200 ppm [5]
